Values quoted from earlier work in patent US9526803B2, “Diagnostic chewing gum for pathogens” (Julius-Maximilians-Universitaet Wuerzburg, priority 2012, dated 2016).
Structures can show the parent of a compound that is named as a salt.

Experiments:
human tongue = settings: average human
gustatory system = settings: reference for calibration of volunteers; bitter value 10,000 = 1 g in 10,000 mL water barely recognized as bitter

SMILES: C=C[C@H]1C[N@@]2CC[C@H]1C[C@H]2[C@H](O)c1ccnc2ccc(OC)cc12 [Quinine sulfate]
- concentration sensed down to (taste recognition threshold) (human tongue): 0.0004 mM

SMILES: C=C[C@H]1C[N@@]2CC[C@H]1C[C@H]2[C@H](O)c1ccnc2ccc(OC)cc12 [quinine-HCl]
- bitter value (gustatory system): 200,000

SMILES: O=C1NS(=O)(=O)c2ccccc21 [saccharin]
- concentration sensed down to (taste recognition threshold) (human tongue): 0.02 mM
